In patent publication US5157052A, “Method for inhibiting IgE production” (priority 1990, dated 1992):
Entries after “also recorded” stand apart in the source; their conditions may differ.

Columns and labels:
[1] = test system: leukocyte membrane proteins; assay: Cell surface density or distribution of leukocyte membrane proteins, overall; type: in vivo, mouse (Balb/c female); details: unstimulated mice, 20 μg
[2] = test system: IgE; assay: Serum IgE response induced by FF1-4D5 + H∂A1 anti-IgD antibodies (ELISA, Assay A / Assay F); type: in vivo, mouse (Balb/c female)
Description: Mouse hybridoma cells expressing either FF1-4D5 antibody or H∂A1 antibody are thawed, established in culture, and incubated in mice as ascite tumors. FF1-4D5 antibody is a mouse IgG2a monoclonal antibody of the b allotype that binds the Fd fragment of the ∂ chain of the a allotype IgD which activates β cells through antigen internalization and processing, promoting cognate interactions with antigen-specific T cells (D. K. Goroff et al., J. Immunol. 136: 2382 (1986)). H∂A1 antibody is a mouse IgG2b of the b allotype that binds the Fc fragment of the ∂ chain of the a allotype IgD which activates β cells through crosslinking IgD (I. M. Zitron and B. L. Clevinger, J. Exp. Med. 152: 1135 (1980)). Each antibody is purified from their respective ascites tumor fluid. […] Serum from the injected mice is recovered and the mean concentration of IgE determined.
Serum levels of IgE are determined and IgE levels are shown to be inhibited in a dose dependent manner.
(§1) ELISA (enzyme linked immunosorbant assay) measurements of IgE are as follows. About 5 μg of B1E3 antibody in 100 μl borate buffered saline (pH8.5) is added to wells of a NuncImmulon II 96 well plate (DiRuscio & Assoc., St. Louis, Mo.) at 37° C. for 90 minutes. The non-bound antibody is removed by flicking the plate. Unreacted sites on the plastic plate are blocked by adding about 200 μl of a 2% solution of newborn bovine serum (NBS) in PBS at 37° C. for 60 minutes. The standard IgE (or an unknown murine serum sample) is diluted to between about 4 ng/ml-256 ng/ml in Hanks-HS (20 mM Hepes, 2% NBS in Hanks Balanced Salt Solution, Gibco, Grand Island, N.Y.) or to 1/200 to 1/1000 in Hanks-HS respectively. 100 μl of standard (or unknown dilutions) are added in triplicate to the wells of the plate and allowed to absorb to B1E3 antibody at about 37° C. for 2-4 hours. The solution is removed by flicking the plate and each well is washed with about 0.5 ml 0.05% Tween 20-PBS 5 times. About 100 μl of biotinylated R1E4, called the primary antibody, diluted to 200 ng/ml is added to all wells and incubated at about 4° C. overnight. The solution is removed by flicking the plate and washed 5 times as described above. The developing reagent (Avidin and biotin-horse radish peroxidase) is incubated in 2% NBS in PBS at ambient temperature for 30 minutes, according to manufacturer's specifications (Vector Laboratories, Burlingame, Calif.). About 100 μl of developing reagent is added to each well and incubated at ambient temperature for 30 minutes. Colorimetric substrate for the developing reagent (ABTS peroxidase substrate system, KPL, Gaithersburg, Md.) is prepared by mixing equal volumes of solutions A and B and incubating at ambient temperature for 60 minutes. The developing reagent solution is removed by flicking the plate and washed 5 times as described above. About 100 μl of the mixture of substrates is added to each well and incubated at ambient temperature for 60 minutes. The optical density of each well is determined on a BioTek ELISA reader (Biotek Instruments, Inc., Burlington, Vermont) and the absorbance data transferred electronically to a DEC VAX mainframe computer. A standard curve is fitted to the IgE standard optical densities using straight line, linear regression statistical fits. IgE in the unknown serum samples is determined by comparing the optical density of the unknown to the standard curve and multiplying that number by the dilution of serum used in the assay.
Stimulation of a transient serum IgE response in mouse with two monoclonal antibodies directed against IgD is carried out as follows.
Mouse hybridoma cells expressing either FF1-4D5 antibody or H∂Al antibody are thawed, established in culture, and incubated in CB6 F1 female mice as an ascites tumor and each immunoglobulin is purified from the ascites fluid as described above. […]

[3] = test system: IgM; assay: Serum IgM in anti-IgD stimulated mice (two site sandwich ELISA, Assay E); type: in vivo, mouse (Balb/c female); details: 20 μg IP 3x daily days 3 and 4
Description: Sera from mice treated with compounds in accordance with the method of the invention are analyzed for levels of IgG1, IgG2a, IgG3, and IgM.
Measurement of mouse IgM by a two site sandwich ELISA is performed in substantial accordance with the teachings of Assay B except for the following changes. About 250 ng of rabbit anti-mouse IgM (Zymed Laboratories) is used to coat a NuncImmulon 96 well plate. The IgM standard is purchased from Southern Biotech. The standard curve is linear between 8-500 ng/ml. Serum containing IgM is diluted 1/4,000 to 1/60,000. About a 1/10,000 dilution of goat anti mouse IgM conjugated to horse radish peroxidase is used as a combined primary antibody and developing reagent. 100 μl is added to each well and the plate is incubated at about 4° C. overnight. The colorimetric substrate is prepared and used as described in Assay A.
Two groups of 4 Balb/c female mice per group are injected with both 100 μg FF1-4D5 antibody and 100 μg H∂Al antibody. On day 3 and 4 the mice are injected with PBS (Group A) or 20 μg (±) methyl 11α,16-dihydroxy-16-ethyl-9-oxoprosta-5Z,13E-dien-1-oate (Group B) at 7 a.m., 1 p.m. and 7 p.m. in substantial accordance with the teaching of Example 13. On day -1, 7, 8, 9 and 11, 50-100 μl of serum is recovered and analyzed for IgE by Assay A and for IgM by Assay E. The results are shown in Table 6.
Three groups of 5 Balb/c female mice per group are injected with both 100 μg FF1-4D5 antibody and 100 μg H∂A1 antibody on day 0. Group A is a control with no further treatment. On day 3 and 4, the mice are injected with 20 μg (±) methyl 11α,16-dihydroxy-4,4,16-trimethyl-9-oxoprosta-13E-en-1-oate (Group B) or 20 μg (±) methyl 11α,16-dihydroxy-16-methyl-9-oxoprosta-3,5Z,13E-trien-1-oate (Group C) as in Example 13. On day -1 and 8, […] of serum is recovered and analyzed for IgE, IgG1, IgG2a, IgG3 and IgM by Assays A, B, C, D and E, respectively.

[4] = Diarrheal effects in rats; details: rat, in vivo, po
[5] = rat, in vivo
[6] = test system: IgE; assay: ED50 for inhibition of IgE calculated from the examples; type: in vivo, mouse; details: for ED50 IgE Inhibition: dose to achieve 50% inhibition of IgE
Description: From the data in the above examples, the effective dose of each prostaglandin to achieve 50% inhibition of IgE (ED50) was calculated.

[7] = test system: IgE; assay: In vitro IgE inhibition; type: cell-based
[8] = J. Pene et al., 1988; cited from earlier work
[9] = test system: IgE; assay: Inhibition of de novo IgE synthesis after oral (intragastric) administration; type: in vivo, mouse (Balb/c female); details: for IgE ± SD: 20 μg intragastric TID days 3 and 4
Description: as §1
Three groups of 4 Balb/c female mice per group are injected with both 100 μg FF1-4D5 antibody and 100 μg H∂A1 antibody (Groups B, C, and D). Another group of 4 Balb/c female mice is injected with PBS alone, unstimulated control Group A. One of the stimulated group were not given any prostaglandin control Group B. On day 3 and 4, individual groups receive an intragastric feeding TID of 0.25 ml of 20 μg of (±) methyl 11α,16-dihydroxy-16-methyl-9-oxoprosta-5Z,13E-dien-1-oate (Group C) or 20 μg of prostaglandin E2 (Group D) dissolved in PBS.

[10] = day -1 baseline before treatment
[11] = Table 9, 20 μg IP days 3 and 4, day 8 (control 3539)
[12] = Table 9, 20 μg IP days 3 and 4, day -1 baseline before treatment

Q: What does the source list for CCCCC(O)(CC)C/C=C/[C@H]1[C@H](O)CC(=O)[C@@H]1C/C=C\CCCC(=O)OC (mixture of isomers) [(±) methyl 11α,16-dihydroxy-16-ethyl-9-oxoprosta-5Z,13E-dien-1-oate]?
A: cell surface density and distribution [1]: identical cell surface density and distribution as the control group; IgE production ([2]; 20 μg IP 3x daily days 3 and 4, Table 6): IgE production is fully inhibited; IgE ± SD ([2]; Table 6, 20 μg IP 3x daily days 3 and 4, day 7 (PBS 4545)): 847 ± 67 ng/mL; IgE ± SD ([2]; Table 6, 20 μg IP 3x daily days 3 and 4, day 8 (PBS 11398)): 1264 ± 173 ng/mL; IgE ± SD ([2]; Table 6, 20 μg IP 3x daily days 3 and 4, day 9 (PBS 7114)): 1064 ± 106 ng/mL; IgE ± SD ([2]; Table 6, 20 μg IP 3x daily days 3 and 4, day 11 (PBS 1064)): 808 ± 16 ng/mL; IgE ± SD ([2]; Table 6, 20 μg IP 3x daily days 3 and 4, day -1 baseline before treatment): < 800 ng/mL; IgM synthesis ([3]; Table 6): IgM synthesis is not affected; IgM ± SD ([3]; day 7 (PBS 1488)): 1858 ± 107 µg/mL; IgM ± SD ([3]; day 8 (PBS 1690)): 2569 ± 803 µg/mL; IgM ± SD ([3]; day 9 (PBS 1396)): 2104 ± 276 µg/mL; IgM ± SD ([3]; day 11 (PBS 548)): 725 ± 199 µg/mL; IgM ± SD [3, 10]: 272 ± 19 µg/mL

Q: With CCCCCCC(C)(O)C/C=C/[C@H]1[C@H](O)CC(=O)[C@@H]1CCCCCCC(=O)OC (mixture of isomers) [(±) methyl-20-ethyl-11α,16-dihydroxy-16-methyl-9-oxoprost-13E-en-1-oate] as the compound, how does the TD50 at 8 h [4] read?
A: 2.7 mg/kg

Q: What about the “diarrhea side effects” value [5] of the same compound?
A: essentially free of detrimental diarrhea side effects

Q: And the “diarrhea side-effect” value ([5]; po)?
A: essentially free of the undesirable diarrhea side-effect

Q: And the “de novo IgE synthesis” value ([2]; 20 μg days 3 and 4, Example 24)?
A: inhibits de novo IgE synthesis

Q: What about the “IgE ± SD” value ([2]; Table 13, 20 μg days 3 and 4, day 8 (control 3653)) of the same compound?
A: < 800 ng/mL

Q: What about the “IgE inhibition” value ([2]; summary statement) of the same compound?
A: excellent IgE inhibition

Q: And the “ED50 IgE Inhibition” value [6]?
A: 1.0 μg/mouse/TID

Q: For CCCCC[C@H](O)/C=C/[C@H]1[C@H](O)CC(=O)[C@@H]1CCCCCCC(=O)O [prostaglandin E1, reference compound], which “inhibition of IgE in vitro” value [7] is on record?
A: exhibit inhibition of IgE in vitro

Q: And the “inhibition of de novo IgE synthesis in vivo” value ([2]; 20 μg days 3 and 4)?
A: lack of inhibition

Q: What about the “IgE ± SD” value [2, 11] of the same compound?
A: 2958 ± 717 ng/mL

Q: And the “IgE ± SD” value [2, 12]?
A: < 800 ng/mL

Q: What about the “inhibition of IgE in vivo” value ([2]; summary statement) of the same compound?
A: only low inhibition in vivo

Q: Which results are given for CCCCC[C@H](O)/C=C/[C@H]1[C@H](O)CC(=O)[C@@H]1C/C=C\CCCC(=O)O [prostaglandin E2]?
A: immunosuppressive effects in vitro [8]: Immunosuppressive effects of prostaglandins in vitro has been demonstrated; inhibition of IgE in vitro [7]: exhibit inhibition of IgE in vitro; inhibition of de novo IgE synthesis in vivo ([2]; 20 μg days 3 and 4): lack of inhibition; IgE ± SD [2, 11]: 3340 ± 384 ng/mL; IgE ± SD [2, 12]: 897 ± 194 ng/mL; inhibition of IgE in vivo ([2]; summary statement): only low inhibition in vivo; inhibition of de novo IgE synthesis after oral administration ([9]; 20 μg intragastric TID): ineffective; also recorded: inhibits IgE synthesis slightly, if at all; IgE ± SD ([9]; day 8 (stimulated control 5792, unstimulated 1015)): 3724 ± 1361 ng/mL; IgE ± SD ([9]; day 10 (stimulated control 1498)): 1496 ± 219 ng/mL; IgE ± SD [9, 10]: 1094 ± 107 ng/mL; ED50 IgE Inhibition [6]: > 45.0 μg/mouse/TID; dosage to achieve 50% inhibition of IgE ([6]; text of Example 28): greater than 45 μg/mouse
